Experimental data: ChEMBL document CHEMBL2417420, “Autotaxin inhibition: development and application of computational tools to identify site-selective lead compounds” (Bioorg Med Chem, 2013)
Peptide text beside a SMILES is read from it. * marks the point of attachment. Cbz = O=C(OCc1ccccc1)*

Molecular target: Autotaxin (Homo sapiens, UniProt Q13822)
Assay: Inhibition of C-terminal FLAG-tagged human recombinant autotaxin using synthetic substrate FS-3 at 10 uM measured every 2 mins by FRET assay relative to control

Compound	inhibition
COc1ccc(OC)c(NC(=S)N2CCn3cccc3C2c2ccc(OC)c(OC)c2)c1 (stereo not given)	30%
COc1ccccc1C1CC(=O)NC(SCC(=O)Nc2ccc(Br)cc2)=C1C#N (stereo not given)	30%
COc1cc(C2C(C#N)=C(SCC(=O)Nc3cccc4ccccc34)NC3=C2C(=O)CCC3)ccc1O (stereo not given)	30%
CCn1c2ccccc2c2cc(/C=C3\SC(=S)N([C@H](Cc4ccc(O)cc4)C(=O)O)C3=O)ccc21	0%
COc1ccccc1/C=C1\SC(=O)N(CCC(=O)N2c3ccccc3Sc3ccccc32)C1=O	20%
COc1ccc(/C=c2/sc3n(c2=O)NC2(c4ccccc4)N(C)C(=O)N(C)C2(c2ccccc2)N=3)cc1O (stereo not given)	10%
O=C(NCC(O)CO)c1ccc2c(c1)nc(COCc1ccccc1)n2Cc1ccco1 (stereo not given)	30%
CCN(CCCCOC(=O)c1ccc(OC)c(OC)c1)C(C)Cc1ccc(OC)cc1 (stereo not given)	10%
COc1ccc(-c2cc(C(=O)NC(C(=O)NCCCCCCO)C(C)C)c3ccccc3n2)cc1C (stereo not given)	10%
COCCNS(=O)(=O)c1ccc2c(c1)NC(=O)C(Cc1ccccc1)N2C(=O)CNCc1ccc(OC)cc1 (stereo not given)	30%
COc1ccc(-c2cc(C(=O)NCC(C)C(=O)NCCNc3ccccc3)c3ccccc3n2)cc1 (stereo not given)	10%
COc1ccccc1C(COc1ccccc1C)NCCC(=O)N(CC(N)=O)Cc1ccc(C)cc1 (stereo not given)	20%
CCCCOc1ccc(-c2nc3cc(C(=O)NCc4cc(F)ccc4F)ccc3n2CCc2ccc(OC)c(OC)c2)cc1	30%
Cc1ccc(C)c(N2CCN(C3CN(C(=O)NCCc4ccccc4)CC3O)CC2)c1 (stereo not given)	10%
COc1cc(/C=N/NC(=O)c2ccc(NC(=O)c3ccc(F)cc3)cc2)cc(Cl)c1O	10%
N#CC1=C(SCC(=O)Nc2ccc(Br)cc2)NC(=O)CC1c1cccc(O)c1 (stereo not given)	30%
COc1ccc(-c2cc(C(F)(F)F)n3nc(C(=O)Nc4cc(Sc5ccc(Br)cc5)cc([N+](=O)[O-])c4)c(Cl)c3n2)cc1OC	10%
Cc1ccc(NC(=O)CN2C(=O)N/C(=C/c3ccc(OCc4cccc([N+](=O)[O-])c4)cc3)C2=O)cc1	0%
O=C(NCC(O)CO)c1ccc2c(c1)nc(CN1CCC(N3CCCC3)CC1)n2CCc1ccccc1 (stereo not given)	30%
CCCCCC(C)(C)c1ccc(Oc2ccc(NC(=O)c3cc(/N=N/c4cccc(OC)c4)c4ccccc4c3O)cc2)cc1	10%
N#CC1=C(SCC(=O)N(c2ccccc2)c2ccccc2)NC(=O)CC1c1cc(Br)c(O)c(Br)c1 (stereo not given)	10%
CC(O)C(NC(=O)c1ccc(N2CCN(C(=O)CCC(=O)c3ccccc3)CC2)nc1)C(N)=O (stereo not given)	20%

Compound	inhibition
CC(O)C(NC(=O)c1cccnc1N1CCN(C(=O)CCC(=O)c2ccccc2)CC1)C(N)=O (stereo not given)	10%
COc1ccc(-c2cc(C(=O)NCCC(=O)NCc3ccccc3OC)c3ccccc3n2)cc1	20%
O=C(O)CN1C(=O)/C(=C/c2cccc(Oc3ccccc3)c2)S/C1=N\c1ccccc1	0%
COc1cccc(/C=C2/S/C(=N/c3ccccc3)N(Cc3ccccc3)C2=O)c1O	0%
COc1ccc(CNC(=O)N2CC(O)C(N3CCN(c4ccccc4F)CC3)C2)cc1 (stereo not given)	10%
COc1ccc(C2=NN(C(=O)CSc3nnc(CNC(=O)c4ccco4)n3-c3cc(C)ccc3C)C(c3ccc(OC)cc3)C2)cc1 (stereo not given)	30%
Nc1c(/N=N/c2ccc(-c3ccc(/N=N/c4ccc(O)cc4)cc3)cc2)c(S(=O)(=O)O)cc2cc(S(=O)(=O)O)c(/N=N/c3ccccc3)c(O)c12	0%
COc1cc(/C=N/NC(=O)c2cc(-c3ccc(OC)c(OC)c3)n[nH]2)ccc1O	10%
COc1ccc(CCNC(=O)c2ccc3c(c2)nc(-c2cc(OC)c(OC)c(OC)c2)n3CCc2ccc(OC)c(OC)c2)cc1OC	30%
CC(O)C(NC(=O)c1cccnc1N1CCC(CCCC2CCN(C(=O)CCC(=O)c3ccccc3)CC2)CC1)C(N)=O (stereo not given)	30%
COc1cc(C2OCC3(CCCC4(COC(c5ccc(O)c(OC)c5)OC4)C3=O)CO2)ccc1O (stereo not given)	30%
CCc1cc2c(cc3c(=O)n(CCCC(=O)NCc4ccc(Cl)cc4)ncn32)s1	30%
Cc1[nH]n(-c2cc(Cl)c(S(=O)(=O)O)cc2Cl)c(=O)c1/N=N/c1cc(Nc2nc(Cl)nc(Nc3cccc(S(=O)(=O)O)c3)n2)ccc1S(=O)(=O)O	10%
COc1ccc(CNC(=O)c2cc(-c3ccc(OC)c(OC)c3)nc3ccc(CNC(=O)c4cccc(Cl)c4)cc23)c(OC)c1	20%
CCC(C)C(NC(=O)OCc1ccccc1)C(=O)NC(Cc1ccc(O)cc1)C(N)=O (stereo not drawn) (Cbz-Ile-Tyr-NH2; configuration not given here)	0%
COCCCn1c(CN2CCN(c3ccccc3F)CC2)nc2cc(C(=O)NCC(O)CO)ccc21 (stereo not given)	10%
COc1ccc(-c2cc(C(=O)NC(C)(C)C(=O)NCCCOC(C)C)c3ccccc3n2)cc1C	20%
CC(C)Cc1ccc(C(C)C(=O)N2CCN(c3ncccc3C(=O)NC(C(N)=O)C(C)O)CC2C)cc1 (stereo not given)	30%
Cc1cc(C)cc(CC(=O)N2CCN(c3ccc(C(=O)NC(C(N)=O)C(C)O)cn3)CC2)c1 (stereo not given)	20%
O=C(NCc1ccc(NC(=O)c2cn(Cc3ccccc3)c3ccccc23)cc1)c1cnc2cc(C(F)(F)F)ccc2c1O	0%
O=[N+]([O-])c1cc(/C=N/c2ccc3nc(SCc4ccc(Br)cc4)sc3c2)ccc1O	0%
CCCCn1c(CN2CC(C)CC(C)C2)nc2cc(C(=O)NCC(O)CO)ccc21 (stereo not given)	0%

Compound	inhibition
CCC(COc1ccc2oc3ccccc3c2c1)NCCC(=O)N(CC(N)=O)Cc1ccc(C)cc1 (stereo not given)	10%
CC(O)C(NC(=O)c1cccnc1N1CCN(C(=O)Cc2ccc(-c3ccccc3)cc2)CC1)C(N)=O (stereo not given)	20%
CCc1cc2c(cc3c(=O)n(CCCC(=O)NCc4ccc(OC(C)C)cc4)ncn32)s1	20%
COc1ccc(CCn2c(-c3cc(OC)c(OC)c(OC)c3)nc3cc(C(=O)NCCc4ccccc4)ccc32)cc1OC	30%
O=C(O)CN1C(=O)/C(=C\c2ccc(OCc3cccc4ccccc34)cc2)SC1=S	30%
CC(CNC(=O)c1cc(-c2ccoc2)nc2ccccc12)C(=O)NCCNc1ccccc1 (stereo not given)	10%
CCCCCOc1ccc(/N=C2\C=C(O)C(=O)c3ccccc32)cc1	20%
CC1CCC(C(C)C)C(OCC(=O)N2CCCN(c3ncccc3C(=O)N3CCCC3C(N)=O)CC2)C1 (stereo not given)	20%
COc1ccc(/C=N/NC(=O)c2cc(O)c(O)c(O)c2)cc1Cn1nc(C)c(Br)c1C	10%
COCCNS(=O)(=O)c1ccc2c(c1)NC(=O)C(CO)N2C(=O)CN1CCC(N2CCCCC2)CC1 (stereo not given)	20%
O=C(O)c1cccc(/N=C2\S/C(=C\c3ccc(-c4cccc(Cl)c4)o3)C(=O)N2Cc2ccccc2)c1	0%
COc1cccc(-c2ccc(C(=O)N(CCN)Cc3ccc(NC(C)=O)cc3)cn2)c1	20%
CCn1c(CN2CCc3ccccc3C2)nc2cc(C(=O)NCC(O)CO)ccc21 (stereo not given)	20%
COc1ccc(-c2cc(C(=O)N/N=C/c3cc(OC)c(O)c(OC)c3)[nH]n2)cc1OC	10%
CCOc1ccc(/N=C\c2ccc(OCC)c(OCC)c2)cc1	0%
COc1ccc(-c2cc(C(=O)NC(C)(C)C(=O)NCCN(C(C)C)C(C)C)c3ccccc3n2)cc1	0%
O=C(O)c1cc(-c2ccc(/C=C3/S/C(=N\Cc4ccccc4)N(Cc4ccccc4)C3=O)o2)ccc1Cl	20%
CC(=O)N1CCN(C(=O)c2ccc3nc(C)c(N(C)C(=O)CCc4ccccc4)n3c2)CC1	0%
CC(CNC(=O)c1cc(-c2ccccc2)nc2ccccc12)C(=O)NCCNc1ccccc1 (stereo not given)	10%
CCc1ccc2c(c1)c1nnc(SCC(=O)NCc3ccc4c(c3)OCO4)nc1n2C	10%
CCCCCCOc1ccc(C(=O)COC(=O)c2ccccc2-c2ccccc2C(=O)COC(=O)c2ccc(OCCCCCC)cc2)cc1	0%
COc1cccc(/C=C2/NC(=O)N(c3cccc(Cl)c3)C2=O)c1OCc1cccc(C(=O)O)c1	30%

Compound	inhibition
CCCCCCOc1ccc(/C=N/c2ccc(C)cc2)cc1	0%
C#CCN1C(=O)S/C(=C/c2ccc(OCc3ccc4ccccc4c3)c(OCC)c2)C1=O	0%
CCCCOc1ccc(-c2nc3cc(C(=O)NCCOCCO)ccc3n2Cc2ccco2)cc1	10%
CCOC(=O)c1sc(NC(=O)c2ccc(Oc3ccc(C(=O)Nc4sc(C(=O)OCC)c(C)c4C(=O)OCC)cc3)cc2)c(C(=O)OCC)c1C	10%
CC(C)c1ccc(OCC(=O)N2CCN(c3ncccc3C(=O)N3CCCC3C(N)=O)CC2C)cc1 (stereo not given)	30%
CCOc1cc(/C=C2/NC(=O)N(Cc3ccccc3F)C2=O)cc(Br)c1OCc1ccc2ccccc2c1	10%
COc1cc(OC)cc(-c2nc3cc(C(=O)NCCc4ccccc4)ccc3n2CCc2ccc(OC)c(OC)c2)c1	30%
CC1CN(c2ccc(C(=O)NC(Cc3ccc(O)cc3)C(N)=O)cn2)CCN1C(=O)C(N)Cc1ccccc1 (stereo not given)	10%
COc1cc(C2CC(=O)NC(SCC(=O)Nc3ccccc3C)=C2C#N)cc(Br)c1O (stereo not given)	30%
CCCCCCOc1ccc(/C=N/c2ccc(/N=C/c3ccc(OCCCCCC)cc3)c(Cl)c2)cc1	0%
COc1cccc(CCNC(=O)c2ccc3c(c2)nc(-c2cc(OC)cc(OC)c2)n3CCc2ccc(OC)c(OC)c2)c1	20%
Cc1[nH]c2ccccc2c1CC(=O)N1CCN(C(=O)c2ccccc2C(=O)c2ccc(Cl)cc2)CC1	30%
COc1cc(C2CC(=O)NC(SCC(=O)Nc3c(C)cc(C)cc3C)=C2C#N)ccc1OCc1ccccc1 (stereo not given)	30%
O=C(O)[C@@H](Cc1ccccc1)N1C(=O)/C(=C/c2cccc(Oc3ccc(Cl)cc3)c2)SC1=S	10%
CCN(C(=O)c1cccc(/C=C2\SC(=S)N([C@H](Cc3ccccc3)C(=O)O)C2=O)c1)c1ccccc1	30%
CC(O)C(NC(=O)c1ccc(N2CCN(C(=O)Cc3ccc(O)cc3)CC2)nc1)C(N)=O (stereo not given)	10%
COc1cccc(C2CC(=O)NC(SCC(=O)Nc3ccccc3C)=C2C#N)c1OC (stereo not given)	30%
O=C1Nc2ccc([N+](=O)[O-])cc2/C1=N/NC(=O)c1ccc(C(=O)N/N=C2\C(=O)Nc3ccc([N+](=O)[O-])cc32)cc1	10%
O=C(NC(S)Nc1ccc2oc(-c3ccc(-c4ccccc4)cc3)nc2c1)c1ccc([N+](=O)[O-])cc1 (stereo not given)	10%
